From patent US20240327364A1, “THERAPEUTIC TARGETING OF GPR68 TO INDUCE FERROPTOSIS” (University Of Maryland, Baltimore, priority 2023, published 2024) come the findings set out here.

Structures are written as SMILES.

In one experiment the target is T1, RIOK2 (Homo sapiens, UniProt Q9BVS4).
T1 construct: purchased DiscoveRx (Fremont, CA)
Nature of the experiment: KinomeScan. The conditions noted are these: read-out: % Control. Format: binding.

Another experiment deals with T2, CXCR3 (Homo sapiens, UniProt P49682).
T2 construct: host or cells: Chem-1 cells with Gα15
T2 sequence (P49682 whole entry, species assumed): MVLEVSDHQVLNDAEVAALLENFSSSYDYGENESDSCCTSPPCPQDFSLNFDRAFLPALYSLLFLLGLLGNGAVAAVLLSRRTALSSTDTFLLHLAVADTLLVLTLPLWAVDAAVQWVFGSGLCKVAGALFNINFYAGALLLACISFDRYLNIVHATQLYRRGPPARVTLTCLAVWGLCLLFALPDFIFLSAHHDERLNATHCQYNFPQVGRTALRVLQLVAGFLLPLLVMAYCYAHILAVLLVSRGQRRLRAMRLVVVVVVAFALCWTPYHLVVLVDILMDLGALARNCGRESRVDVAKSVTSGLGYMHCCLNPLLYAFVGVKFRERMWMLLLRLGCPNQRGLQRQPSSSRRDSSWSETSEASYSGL
Nature of the experiment: GPCR Profiler. Format: cell-based.

Another experiment deals with T3, ERBB2 (Homo sapiens, UniProt P04626).
T3 construct: purchased DiscoveRx (Fremont, CA)
Briefly: KinomeScan. Format: binding. The note with it: read-out: % Control.

The target of another experiment is T4, MAK (Homo sapiens, UniProt P20794).
T4 construct: purchased DiscoveRx
Briefly: KinomeScan. Format: binding. The conditions noted are these: read-out: % Control.

A further experiment deals with T5, STK35 (Homo sapiens, UniProt Q8TDR2).
T5 construct: purchased DiscoveRx (Fremont, CA)
Nature of the experiment: KinomeScan. Format: binding. The conditions noted are these: read-out: % Control.

The next experiment deals with T6, PAK2 (Homo sapiens, UniProt Q13177).
T6 construct: purchased DiscoveRx
Briefly: KinomeScan. Format: binding. The conditions noted are these: read-out: % Control.

For the next experiment, the target named is T7, ADRA1B (Homo sapiens, UniProt P35368).
T7 construct: host or cells: Chem-1 cells with promiscuous Gα15
T7 sequence (P35368 whole entry, species assumed): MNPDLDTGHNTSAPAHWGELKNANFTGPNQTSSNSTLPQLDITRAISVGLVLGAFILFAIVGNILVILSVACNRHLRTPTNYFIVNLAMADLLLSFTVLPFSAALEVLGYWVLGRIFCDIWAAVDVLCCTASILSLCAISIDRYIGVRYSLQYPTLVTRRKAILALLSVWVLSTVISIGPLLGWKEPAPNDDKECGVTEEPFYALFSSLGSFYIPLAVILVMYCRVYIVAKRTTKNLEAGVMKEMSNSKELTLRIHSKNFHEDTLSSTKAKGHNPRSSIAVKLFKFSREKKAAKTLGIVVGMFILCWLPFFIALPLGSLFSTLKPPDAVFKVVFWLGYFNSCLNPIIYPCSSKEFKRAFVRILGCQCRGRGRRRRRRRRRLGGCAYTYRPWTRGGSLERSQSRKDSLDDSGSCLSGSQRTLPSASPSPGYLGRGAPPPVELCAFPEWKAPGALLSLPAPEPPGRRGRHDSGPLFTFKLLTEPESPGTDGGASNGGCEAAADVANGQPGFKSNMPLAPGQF
Nature of the experiment: GPCR Profiler. Format: cell-based.

The target in a further experiment is T8, EGFR(T790M) (Homo sapiens, UniProt P00533, T790M).
T8 construct: purchased DiscoveRx (Fremont, CA)
Briefly: KinomeScan. Format: binding. The conditions noted are these: read-out: % Control.

The target of the next experiment is T9, GSK3B (Homo sapiens, UniProt P49841).
T9 construct: purchased DiscoveRx (Fremont, CA)
Briefly: KinomeScan. The conditions noted are these: read-out: % Control. Format: binding.

Another experiment deals with T10, SIK (Homo sapiens, UniProt P57059).
T10 construct: purchased DiscoveRx (Fremont, CA)
T10 sequence (P57059 whole entry): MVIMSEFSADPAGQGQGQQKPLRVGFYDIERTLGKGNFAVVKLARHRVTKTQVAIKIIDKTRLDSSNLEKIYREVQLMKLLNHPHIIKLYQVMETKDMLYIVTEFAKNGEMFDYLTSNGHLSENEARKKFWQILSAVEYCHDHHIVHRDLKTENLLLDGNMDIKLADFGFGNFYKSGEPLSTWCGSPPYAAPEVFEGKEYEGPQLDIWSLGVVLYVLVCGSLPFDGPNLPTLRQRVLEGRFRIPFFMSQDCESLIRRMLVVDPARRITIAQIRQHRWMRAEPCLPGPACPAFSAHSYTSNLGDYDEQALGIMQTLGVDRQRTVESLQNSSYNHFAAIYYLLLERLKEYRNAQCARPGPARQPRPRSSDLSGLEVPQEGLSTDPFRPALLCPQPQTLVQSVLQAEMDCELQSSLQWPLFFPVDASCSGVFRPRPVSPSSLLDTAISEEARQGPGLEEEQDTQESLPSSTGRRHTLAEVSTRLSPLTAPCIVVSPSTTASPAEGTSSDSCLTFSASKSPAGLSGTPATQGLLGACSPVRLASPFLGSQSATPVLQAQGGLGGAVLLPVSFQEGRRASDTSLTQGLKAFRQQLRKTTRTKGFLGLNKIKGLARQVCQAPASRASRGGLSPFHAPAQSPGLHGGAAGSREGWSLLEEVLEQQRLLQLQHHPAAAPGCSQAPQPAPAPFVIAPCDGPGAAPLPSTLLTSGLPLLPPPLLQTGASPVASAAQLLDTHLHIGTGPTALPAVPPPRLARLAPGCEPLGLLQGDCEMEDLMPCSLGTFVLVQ
Nature of the experiment: KinomeScan. Format: binding. The conditions noted are these: read-out: % Control.

A further experiment deals with T11, SIK2 (Homo sapiens, UniProt Q9H0K1).
T11 construct: purchased DiscoveRx (Fremont, CA)
Briefly: KinomeScan. Format: binding. The note with it: read-out: % Control.

Another experiment has as its target T12, BTK (Homo sapiens, UniProt Q06187).
T12 construct: purchased DiscoveRx (KinomeScan service)
Nature of the experiment: KinomeScan. Format: binding. The note with it: read-out: % Control.

The target in the next experiment is T13, PRKD1 (Homo sapiens, UniProt Q15139).
T13 construct: purchased DiscoveRx (Fremont, CA)
Nature of the experiment: KinomeScan. Format: binding. The conditions noted are these: read-out: % Control.

For the next experiment, the target named is T14, GPR43 (Homo sapiens, UniProt O15552).
T14 construct: host or cells: Chem-1 cells with promiscuous Gα15
T14 sequence (O15552 whole entry, species assumed): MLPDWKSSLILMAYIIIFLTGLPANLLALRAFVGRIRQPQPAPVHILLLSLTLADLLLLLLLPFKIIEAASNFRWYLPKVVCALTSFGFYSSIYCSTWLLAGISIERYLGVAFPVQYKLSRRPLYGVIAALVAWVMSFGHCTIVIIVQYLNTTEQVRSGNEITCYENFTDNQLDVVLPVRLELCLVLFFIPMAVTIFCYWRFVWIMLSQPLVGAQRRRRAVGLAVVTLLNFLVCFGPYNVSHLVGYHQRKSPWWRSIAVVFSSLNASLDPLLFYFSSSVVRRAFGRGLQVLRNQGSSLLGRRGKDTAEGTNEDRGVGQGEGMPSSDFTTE
Nature of the experiment: GPCR Profiler. Format: cell-based.

A further experiment deals with T15, NMU1 (Homo sapiens, UniProt Q9HB89).
T15 construct: host or cells: Chem-1 cells expressing Gα15
T15 sequence (Q9HB89 whole entry): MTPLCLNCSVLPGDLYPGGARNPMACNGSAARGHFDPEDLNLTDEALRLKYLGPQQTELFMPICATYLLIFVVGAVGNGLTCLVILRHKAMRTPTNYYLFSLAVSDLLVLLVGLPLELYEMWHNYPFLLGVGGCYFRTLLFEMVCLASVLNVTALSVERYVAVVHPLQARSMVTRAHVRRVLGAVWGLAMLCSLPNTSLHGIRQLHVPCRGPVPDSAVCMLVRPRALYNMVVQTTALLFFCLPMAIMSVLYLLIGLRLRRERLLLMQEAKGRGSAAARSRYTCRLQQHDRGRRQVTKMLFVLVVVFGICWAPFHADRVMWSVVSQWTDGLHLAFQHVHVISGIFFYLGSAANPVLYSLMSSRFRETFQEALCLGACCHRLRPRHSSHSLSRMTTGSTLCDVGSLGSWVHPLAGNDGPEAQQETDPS
Nature of the experiment: GPCR Profiler. Format: cell-based.

The target of a further experiment is T16, LYN (Homo sapiens, UniProt P07948).
T16 construct: purchased DiscoveRx
Nature of the experiment: KinomeScan. Format: binding. The conditions noted are these: read-out: % Control.

The target of another experiment is T17, CCR1 (Homo sapiens, UniProt P32246).
T17 construct: host or cells: Chem-1 cells with Gα15
T17 sequence (P32246 whole entry, species assumed): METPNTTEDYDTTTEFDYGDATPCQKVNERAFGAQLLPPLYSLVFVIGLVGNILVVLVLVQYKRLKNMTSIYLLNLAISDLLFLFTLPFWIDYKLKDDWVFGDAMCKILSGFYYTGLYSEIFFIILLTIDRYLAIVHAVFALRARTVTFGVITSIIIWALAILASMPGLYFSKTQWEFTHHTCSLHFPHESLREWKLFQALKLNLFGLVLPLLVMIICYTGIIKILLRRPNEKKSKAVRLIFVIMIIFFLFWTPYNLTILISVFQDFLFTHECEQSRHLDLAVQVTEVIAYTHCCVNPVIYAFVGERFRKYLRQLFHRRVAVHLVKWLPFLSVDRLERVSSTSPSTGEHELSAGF
Nature of the experiment: GPCR Profiler. Format: cell-based.

The next experiment concerns the target DAPK1 (Homo sapiens, UniProt P53355). Nature of the experiment: KinomeScan. Format: binding. The conditions noted are these: read-out: % Control.
The target in another experiment is T18, GPR39 (Homo sapiens, UniProt O43194).
T18 construct: host or cells: Chem-1 cells expressing Gα15
T18 sequence (O43194 whole entry): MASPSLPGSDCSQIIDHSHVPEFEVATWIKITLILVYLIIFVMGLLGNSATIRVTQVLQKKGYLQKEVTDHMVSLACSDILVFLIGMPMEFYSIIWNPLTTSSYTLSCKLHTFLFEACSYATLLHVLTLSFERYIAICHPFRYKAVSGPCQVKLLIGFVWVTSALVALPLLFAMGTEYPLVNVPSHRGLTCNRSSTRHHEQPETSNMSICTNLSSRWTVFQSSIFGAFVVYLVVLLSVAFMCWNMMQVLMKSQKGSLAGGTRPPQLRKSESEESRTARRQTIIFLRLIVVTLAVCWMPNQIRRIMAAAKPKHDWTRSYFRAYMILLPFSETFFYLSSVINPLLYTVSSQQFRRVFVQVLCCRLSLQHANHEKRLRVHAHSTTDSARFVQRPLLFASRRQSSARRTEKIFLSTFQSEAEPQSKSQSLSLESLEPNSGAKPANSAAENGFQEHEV
Nature of the experiment: GPCR Profiler. Format: cell-based.

For another experiment, the target named is T19, INSRR (Homo sapiens, UniProt P14616).
T19 construct: purchased DiscoveRx (Fremont, CA)
T19 sequence (P14616 27-1297): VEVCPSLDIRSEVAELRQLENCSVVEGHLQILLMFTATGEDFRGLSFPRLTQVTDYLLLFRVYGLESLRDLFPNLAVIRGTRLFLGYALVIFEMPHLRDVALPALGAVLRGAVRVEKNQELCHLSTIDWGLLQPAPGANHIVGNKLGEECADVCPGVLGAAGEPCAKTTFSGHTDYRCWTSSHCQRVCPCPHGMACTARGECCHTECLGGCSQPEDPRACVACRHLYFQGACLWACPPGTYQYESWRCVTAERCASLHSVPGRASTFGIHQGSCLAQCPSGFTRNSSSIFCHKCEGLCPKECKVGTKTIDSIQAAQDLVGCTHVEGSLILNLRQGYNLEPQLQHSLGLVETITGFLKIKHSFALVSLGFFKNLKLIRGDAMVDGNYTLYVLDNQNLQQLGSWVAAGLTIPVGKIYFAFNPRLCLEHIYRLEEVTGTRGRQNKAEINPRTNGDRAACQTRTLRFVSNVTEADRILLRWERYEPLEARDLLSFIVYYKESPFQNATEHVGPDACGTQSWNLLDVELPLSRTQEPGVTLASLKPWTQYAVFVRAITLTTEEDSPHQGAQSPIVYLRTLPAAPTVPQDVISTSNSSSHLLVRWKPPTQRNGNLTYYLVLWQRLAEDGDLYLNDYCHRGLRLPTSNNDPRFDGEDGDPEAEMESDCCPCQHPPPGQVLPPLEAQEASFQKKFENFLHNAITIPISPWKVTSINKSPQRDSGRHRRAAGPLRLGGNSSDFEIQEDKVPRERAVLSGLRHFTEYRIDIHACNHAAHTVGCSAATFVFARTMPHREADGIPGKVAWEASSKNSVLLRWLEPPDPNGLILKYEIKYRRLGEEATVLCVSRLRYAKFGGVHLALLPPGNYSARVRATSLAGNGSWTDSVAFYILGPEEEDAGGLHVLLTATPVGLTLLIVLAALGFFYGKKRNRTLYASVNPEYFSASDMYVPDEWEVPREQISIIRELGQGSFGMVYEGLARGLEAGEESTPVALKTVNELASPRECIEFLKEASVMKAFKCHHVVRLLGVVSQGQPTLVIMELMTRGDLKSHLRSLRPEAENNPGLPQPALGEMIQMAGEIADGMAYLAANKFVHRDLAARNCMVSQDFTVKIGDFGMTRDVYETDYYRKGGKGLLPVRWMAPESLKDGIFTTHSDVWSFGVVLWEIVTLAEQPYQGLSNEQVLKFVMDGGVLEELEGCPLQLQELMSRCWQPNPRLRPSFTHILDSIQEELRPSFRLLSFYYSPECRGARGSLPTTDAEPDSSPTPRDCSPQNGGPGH
Briefly: KinomeScan. Format: binding. The conditions noted are these: read-out: % Control.

For experiment [1], the target named is T20, 336X-GFP (GPR68 truncation variant) (Homo sapiens, UniProt Q15743).
T20 construct: while the full-length (GPR68-GFP) internalizes in response to stimulation; expressed in transfected cells; host or cells: HEK293T
Briefly: SRE-luciferase assay, 336X-GFP transfected HEK293T cells. Format: cell-based. The conditions noted are these: OGM 10 μM. Here is the method:
12-well plates of cells were transfected with 1 μg DNA using Lipofectamine 3000 with sre:luciferase and either the vector backbone, GFP, GPR68, GPR68-GFP, GPR4, or 336X-GFP. After 3 days, these cells were then lysed, and cell extracts were subjected to Steady-Glo luciferase assay (Promega™) according to the manufacturer's instructions. The results were normalized to cell titer, as determined using Cell Titer-Glo luminescence assay (Promega™). For some procedure, the cells were treated in serum-free medium, and were lysed on the third day.
Loss of internalization can indicate loss of activity or loss of the ability to internalize through beta-arrestin. […] Compared to GFP controls, GPR68-GFP and 336X-GFP transfected cells had higher levels of activity. (n=3 biological replicates done in triplicate). Furthermore, the activity of the truncation variant was still inhibited by OGM. […]

The target in another experiment is GPR68 (Homo sapiens, UniProt Q15743). Nature of the experiment: Acid-induced calcium response, GPR68-transfected HEK293 cells. Format: cell-based.
Sequence of GPR68 (Q15743 whole entry): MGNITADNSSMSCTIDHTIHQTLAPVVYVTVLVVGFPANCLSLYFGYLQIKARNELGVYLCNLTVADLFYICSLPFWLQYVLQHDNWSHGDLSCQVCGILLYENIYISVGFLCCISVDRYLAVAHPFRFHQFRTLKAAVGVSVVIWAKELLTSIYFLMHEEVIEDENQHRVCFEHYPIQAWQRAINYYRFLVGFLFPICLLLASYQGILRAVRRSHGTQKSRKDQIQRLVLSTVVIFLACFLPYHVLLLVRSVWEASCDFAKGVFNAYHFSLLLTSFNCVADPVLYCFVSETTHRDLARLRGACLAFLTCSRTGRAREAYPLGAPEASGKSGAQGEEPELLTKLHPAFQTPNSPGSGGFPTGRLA

With `CCc1ccc2c(c1)C1(NN=C(c3cccc4ccccc34)S1)C(=O)N2` (stereo not shown) [OGM1, 5-ethyl-5′-naphthalen-1-ylspiro[1H-indole-3,2′-3H-1,3,4-thiadiazole]-2-one], the remaining binding at 10 µM at RIOK2 was 100%; on ERBB2, 65%; on MAK it was 90%; on STK35 it was 100%; on PAK2, 72%; on EGFR(T790M), 74%. Moreover, the remaining binding at 10 µM on GSK3B stood at 83%; on SIK it was 95%; on SIK2, 100%; at BTK, 88%; at PRKD1, 100%; on LYN it was 100%. In addition, the remaining binding at 10 µM on DAPK1 was 90%; on INSRR, 100%. Also, the Antagonism at CXCR3 (10 uM) was −2; at ADRA1B (10 uM), 1; on GPR43 (10 uM), 6.4; on NMU1 (10 uM), 6.2; on CCR1 (10 uM), −0.6; on GPR39 (10 uM), 5.4. Moreover, the Agonism on CXCR3 (12.5 uM) is reported as 0.1; on ADRA1B (12.5 uM), 0.1; on GPR43 (12.5 uM), −0.2; on NMU1 (12.5 uM), 1.8; on CCR1 (12.5 uM) it was −0.3; on GPR39 (12.5 uM), 0.
With `CCc1ccc2c(c1)C1(NN=C(c3ccccc3)S1)C(=O)N2` (stereo not shown) [OGM2], in experiment [1], the SRE-luciferase activity result is “reduced the level of luciferase activity”. At GPR68, the “calcium response to extracellular acidification” value was “inhibited”.
